The record followed here is PubChem BioAssay AID1996.

Usually solubility (kinetic) stands for the concentration staying in solution when a stock, usually in DMSO, is diluted into the medium.

In brackets after ≈: the same amount, converted by molar mass.

The conditions of this data set: buffer; pH 7.4; 200.0 µM.
Take `COCc1ccc(CN2CCC(CO)(CC3CCCCO3)CC2)o1` (stereo unspecified): the solubility (kinetic) is greater than 50.6 µg/mL.
Then `CCn1c(C(O)c2cc(OC)ccc2OC)nc2ccccc21` (stereo unspecified), with greater than 46.9 µg/mL; and `C=C(C)CN(CC)C(=O)CN1C(=O)NC2(CCCc3ccccc32)C1=O` (stereo unspecified), with greater than 53.3 µg/mL; and `Cl.OC(CNCc1cccnc1)COc1ccc2ccccc2c1` (stereo unspecified), with 43.5 µg/mL.
Then `CCOc1ccc(-c2ncncc2-c2ccccc2OC)c(O)c1`, with 34 µg/mL (≈ 105 µM); and `CC(C)CNC(=O)C(=O)Nc1cc2c3c(c1)C(C)C(=O)N3CCC2` (stereo unspecified), with 42.7 µg/mL (≈ 130 µM).
Then `CN(C)CCCNc1c2ccccc2nc2ccccc12`, with greater than 41.9 µg/mL.
In the case of `O=C(O)c1ccc2c(=O)[nH]c(CCl)nc2c1`, the kinetic solubility was greater than 35.8 µg/mL.
The molecule `O=C(/C=C/c1ccncc1)c1ccc2c(c1)OCCO2` had a solubility (kinetic) of 26.9 µg/mL (≈ 101 µM).
In turn, `O=C(CN1c2cccc3cccc(c23)S1(=O)=O)Nc1ccc(F)c(F)c1F` came in with a solubility (kinetic) of 2.9 µg/mL (≈ 7.39 µM).
The figure for `COc1cccc(OC(=O)N2CCOCC2)c1` is greater than 35.6 µg/mL; for `COc1ccc(C=C(C#N)C#N)c(CSc2ccccn2)c1` it is 2.1 µg/mL (≈ 6.83 µM).
`CSc1ccc(C(=O)NCC(c2ccco2)N(C)C)cc1[N+](=O)[O-]` (stereo unspecified) yielded a solubility (kinetic) greater than 52.4 µg/mL.
The figure for `O=C(Nc1nnc(-c2cccnc2)o1)c1cccc([N+](=O)[O-])c1` is greater than 46.7 µg/mL.
Then `CN(C)S(=O)(=O)c1cccc(NC(=O)CCCC2CCCCC2)c1`, with 8.2 µg/mL (≈ 23.3 µM); and `COc1cc(S(=O)(=O)N2CCOCC2)cc(C(=O)NCC(c2cccs2)N2CCOCC2)c1OC` (stereo unspecified), with 7.4 µg/mL (≈ 14.1 µM).
Then `COc1ccccc1OCCn1c(=S)[nH]c2ccccc21`, with 1.4 µg/mL (≈ 4.66 µM); and `O=S(=O)(c1ccccc1)N1CCN(CCc2ccccc2)CC1`, with 1.7 µg/mL (≈ 5.14 µM).
Molecule `C/C=C/C(=O)OCC(=O)Nc1cccc(F)c1` returned a kinetic solubility greater than 35.6 µg/mL.
Then `O=C(NCC1CCCO1)c1ccc(N2C(=O)C3CCCCC3C2=O)cc1` (stereo unspecified), with 44.9 µg/mL (≈ 126 µM); and `O=Cc1c(NCc2ccccc2)c2ccccc2[nH]c1=O`, with 20.7 µg/mL (≈ 74.4 µM); and `CN1CC(C(=O)c2ccc(F)cc2)C(c2ccc(F)cc2)C1` (stereo unspecified), with greater than 45.2 µg/mL.
In turn, `O=C(Nc1ccccc1N1CCOCC1)c1ccc2c(c1)OCO2` displayed a kinetic solubility of 4.7 µg/mL (≈ 14.4 µM).
Then `Cc1onc(-c2ccccc2)c1CNC(=O)Nc1ccc(F)cc1F`, with 4.1 µg/mL (≈ 11.9 µM).
`CCOP(=O)(OCC)C(NC(=O)c1cccc(C)c1)C(Cl)(Cl)Cl` (stereo unspecified) yielded a kinetic solubility of 56.3 µg/mL (≈ 140 µM).
Then `CCn1ccnc1C(O)c1cccc2ccccc12` (stereo unspecified), with greater than 37.8 µg/mL.
The figure for `O=C(/C=C/c1cccc(Br)c1)NCc1ccncc1` is 37.2 µg/mL (≈ 117 µM); for `CC1CCN(CC(C)OC(=O)c2ccco2)CC1.Cl` (stereo unspecified) it is greater than 43.2 µg/mL.
Turning to `O=C(Oc1ccc(C(=S)N2CCOCC2)cc1)c1cccc([N+](=O)[O-])c1`, the kinetic solubility was less than 0.4 µg/mL.
Consider `CN1CCN(c2oc(-c3ccc([N+](=O)[O-])cc3)nc2C#N)CC1`, for which the solubility (kinetic) came out at 4.1 µg/mL (≈ 13.1 µM).
The figure for `Cc1cccc(N=C2NC(=O)/C(=C/c3cccn3C)S2)c1` is 1 µg/mL (≈ 3.36 µM); for `O=[N+]([O-])c1cccc(S(=O)(=O)N2CCCCC2)c1` it is 37.5 µg/mL (≈ 139 µM); for `O=C(COC(=O)c1cc(=O)c2ccccc2o1)NCC1CCCCC1` it is 33 µg/mL (≈ 96.1 µM).
Then `COC(=O)c1cc(NC(=O)CN(C)C2CCS(=O)(=O)C2)cc(C(=O)OC)c1.O=C(O)C(=O)O` (stereo unspecified), with greater than 73.3 µg/mL.
The figure for `Cc1ccc(C(=O)NCC(=O)NC23CC4CC(CC(C4)C2)C3)cc1` is 4.2 µg/mL (≈ 12.9 µM); for `Cc1ccc2c(c1)N(CC(=O)NCc1ccco1)C(=O)C(C(C)C)O2` (stereo unspecified) it is 22.8 µg/mL (≈ 66.6 µM).
`Nc1cccc(-c2nc3ccc(C(=O)c4ccccc4)cc3[nH]2)c1` gave a solubility (kinetic) of 20.3 µg/mL (≈ 64.8 µM).
The figure for `Cl.O=C(O)C1CCN(Cc2ccccn2)CC1` is 34.4 µg/mL.
Then `CCOC(=O)C1=C(C)N=C2SCCC(=O)N2[C@@H]1c1cccs1`, with 39.1 µg/mL (≈ 116 µM).
In turn, `Cc1cc2c(=O)n(C)c(SCC(=O)Nc3cccc(F)c3)nc2s1` had a kinetic solubility of less than 0.3 µg/mL.
The figure for `CCOc1cccc2cc(C(=O)NCc3ccc(C)cc3)c(=N)oc12` is 2.4 µg/mL (≈ 7.13 µM); for `O=C(COc1cccc(Cl)c1)NCc1ccccc1` it is greater than 41.4 µg/mL; for `O=C(CN1C(=O)NC2(CCCC2)C1=O)NCc1ccco1` it is greater than 43.7 µg/mL.
Consider `COC(=O)COc1cccc2c(=O)n(CC(=O)N3CCC(C)CC3)ccc12`, for which the kinetic solubility is greater than 55.9 µg/mL.
The figure for `Cc1cc(C)c2oc(-c3cccc(N)c3)nc2c1` is 3 µg/mL (≈ 12.6 µM); for `Nc1ccc(S(=O)(=O)C(F)(F)F)cc1N` it is greater than 36 µg/mL; for `CC1CCCN(S(=O)(=O)c2ccc(Cl)s2)C1` (stereo unspecified) it is 10.8 µg/mL (≈ 38.6 µM).
Then `O=c1[nH]c(=O)n(-c2cccc(F)c2)c(O)c1/C=C1\C=Nc2ccccc21`, with 2.9 µg/mL (≈ 8.3 µM); and `O=C(CN1C(=O)S/C(=C\C=C\c2ccccc2)C1=O)N1CCOCC1`, with 7.8 µg/mL (≈ 21.8 µM); and `CN(Cc1ccc(F)cc1)Cc1nc(CCc2ccccc2)no1`, with 5.7 µg/mL (≈ 17.5 µM).
Turning to `CCC(NC(=S)NCc1ccc(F)cc1)c1ccc(C(C)C)cc1` (stereo unspecified), the kinetic solubility is less than 0.4 µg/mL.
The figure for `O=C(Oc1ccccc1)N1CCN(c2ccccc2F)CC1` is 39.5 µg/mL (≈ 132 µM).
In turn, `Cc1ccc(/C(O)=C2\C(=O)C(=O)N(C)C2c2cccc([N+](=O)[O-])c2)cc1` (stereo unspecified) registered a solubility (kinetic) of 51.5 µg/mL (≈ 146 µM).
Regarding `CC(C)(C)NC(=O)c1cccc2c1-c1ccccc1C2=O`, the solubility (kinetic) is 29.8 µg/mL (≈ 107 µM).
The molecule `CC(C)OCCCNC(=O)CN1CCN(Cc2ccc(Cl)cc2)C1=O` had a kinetic solubility greater than 55.2 µg/mL.
Then `O=C1NC(=S)S/C1=C\c1ccc2ccccc2c1`, with 1.1 µg/mL (≈ 4.05 µM).
The figure for `Clc1cc(-c2ccccc2)nc(-c2ccccc2)n1` is less than 0.3 µg/mL; for `COc1ccc(NC(=O)CN2CCCCC2)cc1S(=O)(=O)N1CCCCC1.O=C(O)C(=O)O` it is greater than 72.8 µg/mL; for `c1ccc(CC(NCc2ccco2)c2ccccc2)cc1` (stereo unspecified) it is 13.6 µg/mL (≈ 49 µM).
As to `O=C(Nc1cccc(C(F)(F)F)c1)OCc1ccncc1`, the solubility (kinetic) is 12.4 µg/mL (≈ 41.9 µM).
Regarding `O=C(COC(=O)c1ccc([N+](=O)[O-])cc1)Nc1ccccc1C(=O)NC1CC1`, the solubility (kinetic) is 8.5 µg/mL (≈ 22.2 µM).
Then `CCN(CC)C(=O)CN(C#N)c1nc(Cl)nc(N(C)C)n1`, with 41.3 µg/mL (≈ 132 µM); and `Cc1cc(C(=O)COc2cccc([N+](=O)[O-])c2)c(C)n1C1CC1`, with 6.2 µg/mL (≈ 19.7 µM); and `C=CCNc1nc(-c2c(C)nc3ncccn23)cs1`, with greater than 40.7 µg/mL.
The figure for `CCc1ccnc(NC(=O)NS(=O)(=O)c2ccc(C)cc2)c1` is 47.6 µg/mL (≈ 149 µM); for `CCOc1ccc(/C=C2\SC(=S)N(C(C(=O)O)c3ccccc3)C2=O)cc1OC` (stereo unspecified) it is greater than 64.4 µg/mL.
`CCN(C(=O)c1cccs1)c1nc(-c2ccc(OC)cc2)cs1` gave a solubility (kinetic) of 0.6 µg/mL (≈ 1.74 µM).
The molecule `CCOc1ccc2[nH]c3c(N4CCC5(CC4)OCCO5)ncnc3c2c1` showed a kinetic solubility of 4 µg/mL (≈ 11.3 µM).
The molecule `N#Cc1c(F)cccc1NCCCn1ccnc1` showed a solubility (kinetic) of 30.7 µg/mL (≈ 126 µM).
In the case of `O=C(NCc1ccccc1)c1cnc(Cl)c(Cl)c1`, the solubility (kinetic) was 35.9 µg/mL (≈ 128 µM). This solubility kinetic and that of the molecule before are within 1.5-fold of each other.
Then `CCN(CC)S(=O)(=O)c1ccc(NCCc2ccccn2)nc1`, with 49.2 µg/mL (≈ 147 µM).
With `Cc1ccc(Nc2c(F)c(F)c(F)c(F)c2C(=O)O)c(C)c1`, the solubility (kinetic) came to 40.4 µg/mL (≈ 129 µM).
On to `O=C(COC(=O)CNC(=O)c1cc(Cl)cc([N+](=O)[O-])c1)NC(=O)NCc1ccco1`, for which the solubility (kinetic) worked out at 61.7 µg/mL (≈ 141 µM).
The figure for `CC1CCCC(NC(=O)COC(=O)COc2cccc(F)c2)C1C` (stereo unspecified) is 20.2 µg/mL (≈ 59.9 µM); for `CC(C)OC(=O)CC1C(=O)NCCN1C(=O)COc1ccc(C(C)(C)C)cc1` (stereo unspecified) it is 49.4 µg/mL (≈ 127 µM); for `Cc1ccc(S(=O)(=O)N2CCOCC2)cc1NC(=O)COc1ccccc1Cc1ccccc1` it is 4.4 µg/mL (≈ 9.16 µM).
`O=C(NCCCN1CCCC1=O)Nc1ccccc1Cl` showed a solubility (kinetic) greater than 44.4 µg/mL.
The figure for `O=C1CSC(c2ccccc2)N1c1cccnc1` (stereo unspecified) is greater than 38.4 µg/mL; for `COc1ccc(OCC(O)CN2CCNCC2)cc1.Cl` (stereo unspecified) it is 49.5 µg/mL; for `Nc1cc(N)nc(SCc2cccc(F)c2)n1` it is 24.9 µg/mL (≈ 99.5 µM).
The figure for `CC(=O)N1CCN(C(=O)c2ccc(C)c(S(=O)(=O)N3CCCCC3)c2)CC1` is greater than 59 µg/mL.
For the molecule `CC(C1CCN(Cc2nc(C3CC3)no2)CC1)N1CCOCC1` (stereo unspecified), the solubility (kinetic) amounted to 47.9 µg/mL (≈ 149 µM).
With `O=C1NC(=Nc2ccccc2)S/C1=C\c1cccs1`, the kinetic solubility came out at 1 µg/mL (≈ 3.49 µM).
With `O=C(Cn1cc([N+](=O)[O-])cn1)NCCc1nc2ccccc2[nH]1`, the solubility (kinetic) is greater than 47.1 µg/mL.
The figure for `N#CC(C(=O)c1ccccc1)=C1SCCS1` is 1.8 µg/mL (≈ 7.28 µM).
The figure for `CCOc1ccc(/C=C2\SC(=O)N(c3ccc(O)cc3)C2=O)cc1OC` is less than 0.8 µg/mL; for `Fc1ccc(NC(=S)Nc2ccc3nccnc3c2)cc1` it is 41.9 µg/mL (≈ 140 µM); for `O=C(COC(=O)C1CCC1)Nc1ccc(Cl)cn1` it is greater than 40.3 µg/mL.
`Cc1ccc(CS(=O)(=O)CCC(=O)NCCc2ccccc2)cc1`: the kinetic solubility was determined as 5.2 µg/mL (≈ 15.1 µM).
The molecule `O=C(COC(=O)CCC1CCCC1)NCc1ccc(Cl)cc1` yielded a kinetic solubility of less than 0.7 µg/mL.
The figure for `Cc1c([N+](=O)[O-])cc(C(=O)Nc2ccc3ncccc3c2)cc1[N+](=O)[O-]` is 0.5 µg/mL (≈ 1.42 µM); for `O=[N+]([O-])c1ccc2c(c1)ncn2CCc1ccccc1` it is 8 µg/mL (≈ 29.9 µM).
The figure for `CN(C)CCC(O)c1ccccc1` (stereo unspecified) is 13.3 µg/mL (≈ 74.2 µM); for `CC(C)C(=O)Nc1cccc(-c2nc3ncccc3o2)c1` it is 37.5 µg/mL (≈ 133 µM).
Then `CN1CCN(CC(=O)N2c3ccccc3Sc3ccccc32)CC1`, with greater than 50.9 µg/mL; and `O=C(NCC(=O)N1CCOCC1)c1ccc(Cl)cc1`, with greater than 42.4 µg/mL; and `CCCCC(=O)Nc1cccc(-c2nc3ncccc3o2)c1C`, with greater than 46.4 µg/mL.
As for `COc1ccccc1NC(=O)Nc1cccc(NC(C)=O)c1`, the kinetic solubility was 34.2 µg/mL (≈ 114 µM).
The figure for `CC1CCCC(NC(=O)CSc2ncnc3ccccc23)C1C` (stereo unspecified) is 24.1 µg/mL (≈ 73.1 µM); for `O=c1[nH]c(=S)n(Cc2ccc(F)cc2)c(O)c1C=NCc1ccc2c(c1)OCO2` it is 0.4 µg/mL (≈ 0.968 µM); for `Cc1cccn2c(=O)c(/C=C(\C#N)C(N)=O)c(Oc3ccccc3)nc12` it is 7.9 µg/mL (≈ 22.8 µM).
